US20120245199A1, “[4 [4-(AMINOMETHYL-2-FLUORO-PHENYL)-PIPERIDIN-1-YL]-(1H-PYRROLO-PYRIDIN-YL)-METHANONES AND SYNTHESIS THEREOF” (SANOFI, priority 2009, published 2012)
Where “and” joins values, the source holds several entries; their conditions need not be identical. Identical values can stand only once. Counter-ions that a name gives are not always drawn.

Target: T1, recombinant human beta tryptase (Homo sapiens, UniProt Q15661)
T1 construct: host or cells: yeast cells
T1 sequence (Q15661 31-275): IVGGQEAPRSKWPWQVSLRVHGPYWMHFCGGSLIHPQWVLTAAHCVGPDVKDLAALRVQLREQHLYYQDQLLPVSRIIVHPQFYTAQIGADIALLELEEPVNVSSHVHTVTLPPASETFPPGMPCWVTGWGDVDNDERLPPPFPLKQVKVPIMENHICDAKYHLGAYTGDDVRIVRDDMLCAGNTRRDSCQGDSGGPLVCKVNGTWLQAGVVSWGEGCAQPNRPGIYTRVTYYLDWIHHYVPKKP
Test: beta-Tryptase inhibition, chromogenic enzyme assay (S2366 substrate)
Format: biochemical
Conditions: Ki calculated from IC50: Ki=IC50/(1+[Substrate]/Km), 0.5 mM S2366, room temperature
From the text: Inhibition of this catalytic activity may be measured by the in vitro enzyme assay and the cellular assay.
Tryptase inhibition activity is confirmed using either isolated human lung tryptase or recombinant human beta tryptase expressed in yeast cells. Essentially equivalent results are obtained using isolated native enzyme or the expressed enzyme. The assay procedure employs a 96 well microplate (Costar 3590) using L-pyroglutamyl-L-prolyl-L-arginine-para-nitroanilide (S2366: Quadratech) as substrate (essentially as described by McEuen et. al. Biochem Pharm, 1996, 52, pages 331-340). Assays are performed at room temperature using 0.5 mM substrate (2×Km) and the microplate is read on a microplate reader (Beckman Biomek Plate reader) at 405 nm wavelength.
S2366 (Stock solutions of 2.5 mM).
Purified recombinant beta Tryptase Stocks of 310 μg/mL.
• Add 60 μL of diluted substrate (final concentration of 500 μM in assay buffer) to each well • Add compound in duplicates, final concentration of 20 μM, volume 20 μL • Add enzyme at a final concentration of 50 ng/mL in a volume of 20 μL • Total volume for each well is 100 μL • Agitate briefly to mix and incubate at room temp in the dark for 30 minutes • Read absorbencies at […] Each plate has the following controls: • Totals: 60 μL of substrate, 20 μL of buffer (with 0.2% final concentration of DMSO), 20 μL of enzyme • Non-specific: 60 μL of substrate, 40 μL of buffer (with 0.2% DMSO) • Totals: 60 μL of substrate, 20 μL of buffer (No DMSO), 20 μL of enzyme • Non-specific: 60 μL of substrate, 40 μL of buffer (No DMSO)
The protocol is essentially the same as above except that the compound is added in duplicates at the following final concentrations: 0.01, 0.03, 0.1, 0.3, 1, 3, 10 μM (All dilutions carried out manually). For every assay, whether single point or IC50 determination, a standard compound is used to derive IC50 for comparison. From the IC50 value, the Ki can be calculated using the following formula: Ki=IC50/(1+[Substrate]/Km).
`NCc1ccc(F)c(C2CCN(C(=O)c3cc4cccnc4[nH]3)CC2)c1` [Example 1, [4-(5-Aminomethyl-2-fluoro-phenyl)-piperidin-1-yl]-(1H-pyrrolo[2,3-b]pyridin-2-yl)-methanone dihydrochloride] gave a Ki of 221 nM. `COCCn1c(C(=O)N2CCC(c3cc(CN)ccc3F)CC2)cc2cccnc21` [Example 2, [4-(5-Aminomethyl-2-fluoro-phenyl)-piperidin-1-yl]-[1-(2-methoxy-ethyl)-1H-pyrrolo[2,3-b]pyridin-2-yl]-methanone dihydrochloride] gave a Ki of 538 nM. Molecule `COCCn1c(C(=O)N2CCC(c3cccc(CN)c3)CC2)cc2cccnc21` [Example 3, [4-(3-Aminomethyl-phenyl)-piperidin-1-yl]-[1-(2-methoxy-ethyl)-1H-pyrrolo[2,3-b]pyridin-2-yl]-methanone dihydrohydrochloride, dihydrochloride] has a Ki of 915 nM. With `COCCn1c(C(=O)N2CCC(c3cc(CN)ccc3F)CC2)cc2cnccc21` [Example 4, [4-(5-Aminomethyl-2-fluoro-phenyl)-piperidin-1-yl]-[1-(2-methoxy-ethyl)-1H-pyrrolo[3,2-c]pyridin-2-yl]-methanone hydrochloride] the Ki was 1100 nM. `NCc1ccc(F)c(C2CCN(C(=O)c3c[nH]c4cnccc34)CC2)c1` [Example 5, [4-(5-Aminomethyl-2-fluoro-phenyl)-piperidin-1-yl]-(1H-pyrrolo[2,3-c]pyridin-3-yl)-methanone dihydrochloride] gave a Ki of 220 nM. `COCCn1cc(C(=O)N2CCC(c3cccc(CN)c3)CC2)c2ccncc21` [Example 8, [4-(3-Aminomethyl-phenyl)-piperidin-1-yl]-[1-(2-methoxy-ethyl)-1H-pyrrolo[2,3-c]pyridin-3-yl]-methanone dihydrochloride] gave a Ki of 99 nM. `COCCn1cc(C(=O)N2CCC(c3cc(CN)ccc3F)CC2)c2ccncc21` [Example 9, [4-(5-Aminomethyl-2-fluoro-phenyl)-piperidin-1-yl]-[1-(2-methoxy-ethyl)-1H-pyrrolo[2,3-c]pyridin-3-yl]-methanone dihydrochloride] showed a Ki of 35 nM. In the case of `COCCn1cc(C(=O)N2CCC(c3cc(CN)ccc3F)CC2)c2cnccc21` [Example 10, [4-(5-Aminomethyl-2-fluoro-phenyl)-piperidin-1-yl]-[1-(2-methoxy-ethyl)-1H-pyrrolo[3,2-c]pyridin-3-yl]-methanone dihydrochloride], the Ki is reported as 180 nM. In the case of `COCCOc1nccc2c(C(=O)N3CCC(c4cc(CN)ccc4F)CC3)cn(CCOC)c12` [Example 11, [4-(5-Aminomethyl-2-fluoro-phenyl)-piperidin-1-yl]-[7-(2-methoxy-ethoxy)-1-(2-methoxy-ethyl)-1H-pyrrolo[2,3-c]pyridin-3-yl]-methanone dihydrochloride], the Ki is reported as 166 nM. With `COCCn1cc(C(=O)N2CCC(c3cc(CN)ccc3F)CC2)c2nccc(C)c21` [Example 12, [4-(5-Aminomethyl-2-fluoro-phenyl)-piperidin-1-yl]-[1-(2-methoxy-ethyl)-7-methyl-1H-pyrrolo[3,2-b]pyridin-3-yl]-methanone dihydrochloride] the Ki was 23 nM and 13 nM. With `COCCn1cc(C(=O)N2CCC(c3cc(CN)ccc3F)CC2)c2ccnc(Cl)c21` [Example 13, [4-(5-Aminomethyl-2-fluoro-phenyl)-piperidin-1-yl]-[7-chloro-1-(2-methoxy-ethyl)-1H-pyrrolo[2,3-c]pyridin-3-yl]-methanone dihydrochloride] the Ki was 25 nM. Molecule `COCCn1cc(C(=O)N2CCC(c3cc(CN)ccc3F)CC2)c2ccnc(C)c21` [Example 14, [4-(5-Aminomethyl-2-fluoro-phenyl)-piperidin-1-yl]-[1-(2-methoxy-ethyl)-7-methyl-1H-pyrrolo[2,3-c]pyridin-3-yl]-methanone] has a Ki of 25 nM. For `COCCn1cc(C(=O)N2CCC(c3cc(CN)ccc3F)CC2)c2nccc(OC)c21` [Example 15, [4-(5-Aminomethyl-2-fluoro-phenyl)-piperidin-1-yl]-[7-methoxy-1-(2-methoxy-ethyl)-1H-pyrrolo[3,2-b]pyridin-3-yl]-methanone dihydrochloride], the Ki was 9.9 nM. With `NCc1ccc(F)c(C2CCN(C(=O)c3cn(CCc4ccccc4)c4cccnc34)CC2)c1` [Example 16, [4-(5-Aminomethyl-2-fluoro-phenyl)-piperidin-1-yl]-(1-phenethyl-1H-pyrrolo[3,2-b]pyridin-3-yl)-methanone dihydrochloride] the Ki was 2.9 nM. `NCc1ccc(F)c(C2CCN(C(=O)c3cn(CCN4CCCCC4)c4cccnc34)CC2)c1` [Example 17, [4-(5-Aminomethyl-2-fluoro-phenyl)-piperidin-1-yl]-[1-(2-piperidin-1-yl-ethyl)-1H-pyrrolo[3,2-b]pyridin-3-yl]-methanone trihydrochloride] showed a Ki of 290 nM. `NCc1ccc(F)c(C2CCN(C(=O)c3cn(CCN4CCCC4)c4cccnc34)CC2)c1` [Example 18, [4-(5-Aminomethyl-2-fluoro-phenyl)-piperidin-1-yl]-[1-(2-pyrrolidin-1-yl-ethyl)-1H-pyrrolo[3,2-b]pyridin-3-yl]-methanone trihydrochloride] showed a Ki of 277 nM. With `NCc1ccc(F)c(C2CCN(C(=O)c3c[nH]c4ncccc34)CC2)c1` [Example 19, [4-(5-Aminomethyl-2-fluoro-phenyl)-piperidin-1-yl]-(1H-pyrrolo[2,3-b]pyridin-3-yl)-methanone dihydrochloride] the Ki was 203 nM. `COCCn1cc(C(=O)N2CCC(c3cc(CN)ccc3F)CC2)c2cccnc21` [Example 20, [4-(5-Aminomethyl-2-fluoro-phenyl)-piperidin-1-yl]-[1-(2-methoxy-ethyl)-1H-pyrrolo[2,3-b]pyridin-3-yl]-methanone dihydrochloride] showed a Ki of 92 nM.

Test system: not given
Test: not given
Conditions: not given
For `COCCn1cc(C(=O)N2CCC(c3cc(CN)ccc3F)CC2)c2ccnc(Cl)c21` (as salt: hydrochloride) [Example 13, [4-(5-Aminomethyl-2-fluoro-phenyl)-piperidin-1-yl]-[7-chloro-1-(2-methoxy-ethyl)-1H-pyrrolo[2,3-c]pyridin-3-yl]-methanone dihydrochloride], the melting point was 163 to 167 °C.
